Measurements: patent US11059852B2, “Ergostenol glycoside derivative” (ST PHARM CO., LTD., priority 2017, dated 2021)

What was measured:
Type in all cases: cell-based
[1] = tested on: CCL22 expression in HaCaT cells; assay: CCL22 gene expression (RT-PCR) in HaCaT cells induced by TNF-α and/or IFN-γ; conditions: HaCaT cells, 2.5, 5, 10 and 20 μg/mL for one hour, then TNF-α, IFN-γ, or both, 18 hours; RNA level, FIG. 2
Experimental: (§1) 1×10^6 HaCaT cells were moved into a 6-well microplate, cultured in DMEM containing 10% (v/v) FBS for 12 hours, washed with PBS, and then treated in 2 mL of serum free media with ergostenol at each concentration of 2.5, 5, 10 and 20 μg/mL for one hour. After that, the cells were treated with inflammation-inducing molecules, i.e., TNF-α, IFN-γ, or TNF-α and IFN-γ, and then cultured for 18 hours. To identify a change in CCL17 and CCL22 expressions at an RNA level, RNAs were isolated with Trizol reagent kit (Invitrogen, Gaithersburg, Md.) according to a manufacturer's manual. A reverse transcription was performed with the isolated RNAs as a template to obtain cDNAs. A reverse transcription buffer solution (5 mM MgCl2, 1 mM dNTP, 2.5 U/μL reverse transcriptase, and 2.5 μM oligo (dT) 15 as a primer (omniscript RTkit, Qiagen)), 0.5 U of RNase inhibiter, 2.5 μM of oligo (dT) and 2.5 U of reverse transcriptase were added into 2 μg of […], and subjected to reaction at 37° C., such that the cDNAs were obtained. To quantify the obtained cDNAs, PCR was performed with the primers of a following table 1, after which the amplified DNAs were identified with 1% agarose gel.

[2] = tested on: CCL17 expression in HaCaT cells; assay: CCL17 protein in media (ELISA) of HaCaT cells induced by TNF-α and/or IFN-γ; conditions: HaCaT cells, 2.5, 5, 10 and 20 μg/mL for one hour, then TNF-α, IFN-γ, or both, 18 hours, FIG. 3
Experimental: (§2) Also, to figure out an effect of ergostenol at a protein level, HaCaT cells were treated with ergostenol at a concentration of 2.5, 5, 10 and 20 μg/mL for one hour, then treated with molecules related to inflammation induction, i.e., TNF-α, IFN-γ, or TNF-α and IFN-γ, and then cultured for 18 hours. With regard to CCL17 and CCL22, the amount of proteins present in media was identified with an ELISA kit (R&D Systems, Minneapolis, Minn., USA). Captured antibodies (anti-CCL17 antibody and anti-CCL22 antibody) at 2 μg/mL were inserted into a 96-well plate in an amount of 50 μL, respectively, subjected to coating for two hours, and then subjected to blocking with PBS containing 1% BSA for one hour. Then, a collected sample was inserted into each well in an amount of 100 μL, respectively, and subjected to reaction for two hours. The cells were washed three times with PBS-T, after which 50 μL of detector antibodies (anti-CCL17 antibody and anti-CCL22 antibody) were inserted into each well at 100 ng/well, and subjected to reaction for two hours. […] The cells were fully washed with PBS-T, after which a substrate solution (TMB) was added thereto, such that absorbance thereof was measured at 450 nm.

[3] = tested on: CCL22 expression in HaCaT cells; assay: CCL22 protein in media (ELISA) of HaCaT cells induced by TNF-α and/or IFN-γ; conditions: HaCaT cells, 2.5, 5, 10 and 20 μg/mL for one hour, then TNF-α, IFN-γ, or both, 18 hours, FIG. 3
Experimental: as §2

[4] = tested on: CCL17 expression in HaCaT cells; assay: CCL17 gene expression (RT-PCR) in HaCaT cells induced by TNF-α and/or IFN-γ; conditions: HaCaT cells, 2.5, 5, 10 and 20 μg/mL for one hour, then TNF-α, IFN-γ, or both, 18 hours; RNA level, FIG. 2
Experimental: as §1

Ergostenol
decrease: level of CCL22 gene expression [1] | level of CCL17 protein expression [2] | level of CCL22 protein expression [3] | level of CCL17 gene expression [4]
